Experimental findings from ChEMBL document CHEMBL1155960, “Design, synthesis and preliminary biological evaluation of acridine compounds as potential agents for a combined targeted chemo-radionuclide therapy approach to melanoma” (Bioorg Med Chem, 2008) are described below.

For series [1] the following is noted: mouse, in vivo, iv, 72 h.
Description: Biodistribution in melanoma of C57BL/6 mouse bearing mouse B16-F0 cells at 0.74 to 0.92 MBq, iv after 72 hrs
In series [2] the test system is Lung. The conditions noted are these: mouse, in vivo, iv, 6 h.
Description: Biodistribution in lung of C57BL/6 mouse bearing mouse B16-F0 cells at 0.74 to 0.92 MBq, iv after 6 hrs
For series [3] the following is noted: mouse, in vivo, iv, 1 h.
Description: Biodistribution in intestinal content of C57BL/6 mouse bearing mouse B16-F0 cells at 0.74 to 0.92 MBq, iv after 1 hr
The conditions of series [4]: mouse, in vivo, iv, 6 h.
Description: Biodistribution in intestinal content of C57BL/6 mouse bearing mouse B16-F0 cells at 0.74 to 0.92 MBq, iv after 6 hrs
The test system of series [5] is Kidney. The conditions noted are these: mouse, in vivo, iv, 1 h.
Description: Biodistribution in kidney of C57BL/6 mouse bearing mouse B16-F0 cells at 0.74 to 0.92 MBq, iv after 1 hr
For series [6] the following is noted: mouse, in vivo, iv, 3 h.
Description: Biodistribution in uvea of C57BL/6 mouse bearing mouse B16-F0 cells at 0.74 to 0.92 MBq, iv after 3 hrs
The subject of series [7] is Blood. The conditions noted are these: mouse, in vivo, iv, 1 h.
Description: Biodistribution in blood of C57BL/6 mouse bearing mouse B16-F0 cells at 0.74 to 0.92 MBq, iv after 1 hr
Series [8] concerns Lung. The conditions noted are these: mouse, in vivo, iv, 3 h.
Description: Biodistribution in lung of C57BL/6 mouse bearing mouse B16-F0 cells at 0.74 to 0.92 MBq, iv after 3 hrs
For series [9], the system named is Spleen. The following applies: mouse, in vivo, iv, 1 h.
Description: Biodistribution in spleen of C57BL/6 mouse bearing mouse B16-F0 cells at 0.74 to 0.92 MBq, iv after 1 hr
In series [10] the test system is Muscle tissue. The conditions noted are these: mouse, in vivo, iv, 3 h.
Description: Biodistribution in muscle of C57BL/6 mouse bearing mouse B16-F0 cells at 0.74 to 0.92 MBq, iv after 3 hrs
Series [11] concerns Lung. The conditions noted are these: mouse, in vivo, iv, 1 h.
Description: Biodistribution in lung of C57BL/6 mouse bearing mouse B16-F0 cells at 0.74 to 0.92 MBq, iv after 1 hr
For series [12], the system named is Spleen. The following applies: mouse, in vivo, iv, 3 h.
Description: Biodistribution in spleen of C57BL/6 mouse bearing mouse B16-F0 cells at 0.74 to 0.92 MBq, iv after 3 hrs
The nature of series [13]: physchem. The conditions noted are these: phosphate buffer solution, pH 7.4.
Description: Partition coefficient, log P in phosphate buffer solution at pH 7.4
In series [14] the test system is Brain. The following applies: mouse, in vivo, iv, 3 h.
Description: Biodistribution in brain of C57BL/6 mouse bearing mouse B16-F0 cells at 0.74 to 0.92 MBq, iv after 3 hrs
Series [15] deals with Blood. The following applies: mouse, in vivo, iv, 3 h.
Description: Biodistribution in blood of C57BL/6 mouse bearing mouse B16-F0 cells at 0.74 to 0.92 MBq, iv after 3 hrs
The conditions of series [16]: mouse, in vivo, iv, 1 h. This is another data set of the same source.
Description: Biodistribution in uvea of C57BL/6 mouse bearing mouse B16-F0 cells at 0.74 to 0.92 MBq, iv after 1 hr
The conditions of series [17]: mouse, in vivo, iv, 6 h. This is another data set of the same source.
Description: Biodistribution in uvea of C57BL/6 mouse bearing mouse B16-F0 cells at 0.74 to 0.92 MBq, iv after 6 hrs
For series [18], the system named is Liver. The following applies: mouse, in vivo, iv, 3 h.
Description: Biodistribution in liver of C57BL/6 mouse bearing mouse B16-F0 cells at 0.74 to 0.92 MBq, iv after 3 hrs
The conditions of series [19]: mouse, in vivo, iv, 3 h. The source holds these as a separate data set.
Description: Biodistribution in intestinal content of C57BL/6 mouse bearing mouse B16-F0 cells at 0.74 to 0.92 MBq, iv after 3 hrs
Series [20] relates to Kidney. The following applies: mouse, in vivo, iv, 3 h.
Description: Biodistribution in kidney of C57BL/6 mouse bearing mouse B16-F0 cells at 0.74 to 0.92 MBq, iv after 3 hrs
The test system of series [21] is Kidney. The following applies: mouse, in vivo, iv, 6 h.
Description: Biodistribution in kidney of C57BL/6 mouse bearing mouse B16-F0 cells at 0.74 to 0.92 MBq, iv after 6 hrs
The test system of series [22] is Muscle tissue. The following applies: mouse, in vivo, iv, 6 h.
Description: Biodistribution in muscle of C57BL/6 mouse bearing mouse B16-F0 cells at 0.74 to 0.92 MBq, iv after 6 hrs
Series [23] has as its system Muscle tissue. The conditions noted are these: mouse, in vivo, iv, 1 h.
Description: Biodistribution in muscle of C57BL/6 mouse bearing mouse B16-F0 cells at 0.74 to 0.92 MBq, iv after 1 hr
For series [24] the following is noted: mouse, in vivo, iv, 24 h.
Description: Biodistribution in uvea of C57BL/6 mouse bearing mouse B16-F0 cells at 0.74 to 0.92 MBq, iv after 24 hrs
Series [25] concerns Liver. The conditions noted are these: mouse, in vivo, iv, 24 h.
Description: Biodistribution in liver of C57BL/6 mouse bearing mouse B16-F0 cells at 0.74 to 0.92 MBq, iv after 24 hrs
For series [26], the system named is Brain. The conditions noted are these: mouse, in vivo, iv, 1 h.
Description: Biodistribution in brain of C57BL/6 mouse bearing mouse B16-F0 cells at 0.74 to 0.92 MBq, iv after 1 hr
The conditions of series [27]: mouse, in vivo, iv, 72 h. This is another data set of the same source.
Description: Biodistribution in uvea of C57BL/6 mouse bearing mouse B16-F0 cells at 0.74 to 0.92 MBq, iv after 72 hrs
For series [28] the following is noted: mouse, in vivo, iv, 72 h. This is another data set of the same source.
Description: Drug excretion in mouse B16-F0 cells bearing C57BL/6 mouse feces at 0.74 to 0.92 MBq, iv after 72 hrs
The conditions of series [29]: mouse, in vivo, iv, 72 h. This is another data set of the same source.
Description: Drug excretion in mouse B16-F0 cells bearing C57BL/6 mouse urine at 0.74 to 0.92 MBq, iv after 72 hrs
The conditions of series [30]: mouse, in vivo, iv, 1 h. The source holds these as a separate data set.
Description: Biodistribution in stomach content of C57BL/6 mouse bearing mouse B16-F0 cells at 0.74 to 0.92 MBq, iv after 1 hr
For series [31] the following is noted: mouse, in vivo, iv, 3 h. This is another data set of the same source.
Description: Biodistribution in stomach content of C57BL/6 mouse bearing mouse B16-F0 cells at 0.74 to 0.92 MBq, iv after 3 hrs
The subject of series [32] is Liver. The conditions noted are these: mouse, in vivo, iv, 6 h.
Description: Biodistribution in liver of C57BL/6 mouse bearing mouse B16-F0 cells at 0.74 to 0.92 MBq, iv after 6 hrs
For series [33] the following is noted: mouse, in vivo, iv, 6 h. The source holds these as a separate data set.
Description: Biodistribution in stomach content of C57BL/6 mouse bearing mouse B16-F0 cells at 0.74 to 0.92 MBq, iv after 6 hrs
In series [34] the test system is Liver. The conditions noted are these: mouse, in vivo, iv, 1 h.
Description: Biodistribution in liver of C57BL/6 mouse bearing mouse B16-F0 cells at 0.74 to 0.92 MBq, iv after 1 hr

A word on the logD: it is the decadic logarithm of the distribution of all forms, ionised or not, between an organic phase and buffer at a given pH. A low value points to lower lipophilicity.

With `CCN(CC)CCNC(=O)c1cccc2c(=O)c3cc(I)ccc3[nH]c12.Cl`, the Drug uptake in series [1] is given as 17.5 % ID/g; in [2], 10 % ID/g; in [3], 22.7 % ID/g; in series [4], 32.9 % ID/g; in series [5], 17.6 % ID/g; in series [6], 16.9 % ID/g. Moreover, the Drug uptake in [7] is on record as 2.08 % ID/g; in [8] it was 14 % ID/g; in series [9], 13.9 % ID/g; in series [10], 1.4 % ID/g; in series [11], 23.9 % ID/g; in series [12], 9.9 % ID/g. The Drug uptake in series [14] worked out at 1.2 % ID/g; in [15], 1.4 % ID/g; in series [16] it was 15.2 % ID/g; in [17], 19.5 % ID/g; in series [18], 9.3 % ID/g; in series [19], 27.81 % ID/g. Moreover, the Drug uptake is recorded as 13 % ID/g in series [20]; 8.9 % ID/g in series [21]; 0.9 % ID/g in series [22]; 1.9 % ID/g in series [23]; 27.5 % ID/g in series [24]; 1.2 % ID/g in [25]. Besides, the Drug uptake in [26] stood at 1.6 % ID/g; in series [27], 26.4 % ID/g. This compound also showed a logD in [13] of 0.27.

On to `CCN(CC)CCNC(=O)c1cccc2c(=O)c3cc([125I])ccc3[nH]c12.Cl`, for which the figures for the Drug uptake in series [28] and in [29] were 38.4 %ID and 10.4 %ID, respectively.

As to `CCN(CC)CCNC(=O)c1ccc(I)cc1.Cl`, the Drug uptake in series [1] stood at 0.88 % ID/g; in series [2], 1 % ID/g; in series [3] it was 7.4 % ID/g; in [28], 4.8 %ID; in [4], 3.3 % ID/g; in series [30], 10.1 % ID/g. The Drug uptake in [5] was 7.3 % ID/g; in series [6], 12 % ID/g; in series [7] it was 1.1 % ID/g; in series [8], 2 % ID/g; in series [9], 4 % ID/g; in series [10], 0.4 % ID/g. Further, the Drug uptake is 4.3 % ID/g in series [31]; 5.5 % ID/g in series [11]; 0.8 % ID/g in [12]; 0.8 % ID/g in series [14]; 83.1 %ID in [29]; 0.2 % ID/g in series [15]. In addition, the Drug uptake in series [16] came out at 13.1 % ID/g; in [32], 2.6 % ID/g; in [17], 13 % ID/g; in series [18], 3.3 % ID/g; in series [19], 3.7 % ID/g; in series [20], 3.1 % ID/g. In addition, the Drug uptake stood at 1.6 % ID/g in series [21]; 0.1 % ID/g in series [22]; 1.3 % ID/g in [23]; 4.5 % ID/g in [33]; 6.1 % ID/g in series [24]; 0.4 % ID/g in series [25]. Moreover, the Drug uptake in series [26] turned out to be 1.5 % ID/g; in series [27] it was 3.8 % ID/g; in series [34], 5.9 % ID/g. Also, the log distribution coefficient (logD) in series [13] was 1.34.
